Experimental data reported in US7365056B2, “Substituted 9a-N-(N′-(sulfonyl)phenylcarbamoyl)derivatives of 9-deoxo-9-dihydro-9a-aza-9a-homoerithomycin A and 5-0-desosaminyl-9-deoxo-9-dihydro-9-a-aza-9a-homoerithronolide A” (GlaxoSmithKline istrazivacki centar Zagreb d.o, priority 2002, dated 2008).
In brackets after ≈: the same amount, converted by molar mass.

Test system: S. pyogenes iMLS resistante strain
Assay: MIC by broth dilution (NCCLS M7-A2), S. pyogenes iMLS resistant strain
Assay type: cell-based
Conditions: MIC = concentration showing 90% growth inhibition, tested range 64 to 0.125 μg/ml
Description: Final concentration of test substances were in range from 64 to 0.125 μg/ml. MIC levels for all compound were determinated on panel of susceptible and resistant Gram positive bacterial strains (S. aureus, S. pneumoniae and S. pyogenes) and on Gram negative strains (E. coli, H. influenzae, E. faecalis, M. catarrhalis).

Row | MIC | SMILES
1 | 2 µg/mL (≈ 2.14 µM) | CCC1OC(=O)C(C)C(OC2CC(C)(OC)C(O)C(C)O2)C(C)C(OC2OC(C)CC(N(C)C)C2O)C(C)(O)CC(C)CN(C(=O)Nc2ccc(S(N)(=O)=O)cc2)C(C)C(O)C1(C)O (centres unmarked) [Example 3, 9-Deoxo-9-dihydro-9a-N-{[4-(aminosulfonyl)phenyl]carbamoyl}-9a-aza-9a-homoerithromycin A]
2 | 2 µg/mL (≈ 1.98 µM) | CCC1OC(=O)C(C)C(OC2CC(C)(OC)C(O)C(C)O2)C(C)C(OC2OC(C)CC(N(C)C)C2O)C(C)(O)CC(C)CN(C(=O)Nc2ccc(S(=O)(=O)Nc3ccccc3)cc2)C(C)C(O)C1(C)O (centres unmarked) [Example 4, 9-Deoxo-9-dihydro-9a-N-{N′-[4-(phenylaminosulfonyl)phenyl]carbamoyl}-9a-aza-9a-homoerithromycin A]
